Assay results from paper PMC3548273, “Rodent Thyroid, Liver, and Fetal Testis Toxicity of the Monoester Metabolite of Bis-(2-ethylhexyl) Tetrabromophthalate (TBPH), a Novel Brominated Flame Retardant Present in Indoor Dust” (Environmental Health Perspectives, 2012).

What was measured:
Format in all cases: cell-based
PPARγ [1] = biological target: T1, PPARγ (Mus musculus, UniProt P37238); assay: FABP4 target gene expression (qPCR) in NIH 3T3 L1 cells at […]; conditions: NIH3T3, read-out: FABP4 target gene expression (qPCR) in NIH 3T3 L1 cells at 100 μM
T1 construct: gene Pparg
T1 sequence (P37238 1-505): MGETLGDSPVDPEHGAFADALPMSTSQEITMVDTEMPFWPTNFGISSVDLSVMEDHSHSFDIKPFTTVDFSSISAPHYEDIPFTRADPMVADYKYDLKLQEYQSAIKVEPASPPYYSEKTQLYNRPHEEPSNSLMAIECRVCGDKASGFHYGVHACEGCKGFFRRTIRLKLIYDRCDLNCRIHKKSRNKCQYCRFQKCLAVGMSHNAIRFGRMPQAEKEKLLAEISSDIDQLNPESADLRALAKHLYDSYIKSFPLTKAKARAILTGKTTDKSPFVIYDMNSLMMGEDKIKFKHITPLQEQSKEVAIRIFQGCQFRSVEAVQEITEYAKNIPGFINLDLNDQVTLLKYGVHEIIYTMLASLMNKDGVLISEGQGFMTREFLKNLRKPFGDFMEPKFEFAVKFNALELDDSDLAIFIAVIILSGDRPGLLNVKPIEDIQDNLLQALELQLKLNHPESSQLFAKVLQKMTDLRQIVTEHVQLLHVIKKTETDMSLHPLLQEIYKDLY

PPARα [2] = biological target: T2, PPARα (Mus musculus, UniProt P23204); assay: AOX target gene expression (qPCR) in FAO-PPARα cells at […]; conditions: read-out: AOX target gene expression (qPCR) in FAO-PPARα cells at 100 μM
T2 construct: gene Ppara; FAO cells stably transfected with mouse PPARα
T2 sequence (P23204 1-468): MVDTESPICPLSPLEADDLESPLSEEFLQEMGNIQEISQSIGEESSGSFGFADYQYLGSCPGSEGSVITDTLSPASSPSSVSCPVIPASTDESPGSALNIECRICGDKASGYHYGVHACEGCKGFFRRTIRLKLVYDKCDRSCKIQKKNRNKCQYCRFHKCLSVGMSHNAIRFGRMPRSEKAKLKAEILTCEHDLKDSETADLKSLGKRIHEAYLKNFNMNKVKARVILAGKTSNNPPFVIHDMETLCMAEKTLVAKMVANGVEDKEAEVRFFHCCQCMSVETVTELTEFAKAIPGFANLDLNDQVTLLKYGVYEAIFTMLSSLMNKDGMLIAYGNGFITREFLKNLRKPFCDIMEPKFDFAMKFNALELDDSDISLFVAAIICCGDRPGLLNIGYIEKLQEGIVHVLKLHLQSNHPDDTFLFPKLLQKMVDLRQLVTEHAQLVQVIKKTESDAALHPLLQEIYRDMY

PPARγ [3] = biological target: T1, PPARγ; assay: FABP4 target gene expression and lipid accumulation in NIH 3T3 L1 cells, with PPARγ shRNA knockdown
PPARα [4] = biological target: T2, PPARα; assay: AOX target gene expression (qPCR) in FAO-PPARα cells
PPARγ [5] = biological target: T1, PPARγ; assay: FABP4 target gene expression (qPCR) in NIH 3T3 L1 cells at […]; conditions: NIH3T3, read-out: FABP4 target gene expression (qPCR) in NIH 3T3 L1 cells at 100 nM
PPARα [6] = biological target: T2, PPARα; assay: AOX target gene expression (qPCR) in FAO-PPARα cells at […]; conditions: fao-pparalpha cells, 0.1 µM

Compound: CCCCC(CC)COC(=O)c1ccccc1C(=O)O (stereo not drawn) [MEHP]
- fold induction at 100 µM (PPARγ [1]): 11.5 ± 2.7
- fold induction at 100 µM (PPARα [2]): 5.4 ± 0.6

Compound: CCCCC(CC)COC(=O)c1c(Br)c(Br)c(Br)c(Br)c1C(=O)O (stereo not drawn) [TBMEHP]
- FABP4 target gene expression and lipid accumulation in NIH 3T3 L1 cells, with PP (PPARγ [3]): TBMEHP-induced expression of the PPARγ target gene, FABP4, was significantly impaired in PPARγ-shRNA transduced cells
- AOX target gene expression (qPCR) in FAO-PPARα cells (PPARα [4]): TBMEHP, but not TBPH, significantly up-regulated the expression of both FABP4 and AOX mRNA

Compound: CN(CCOc1ccc(CC2SC(=O)NC2=O)cc1)c1ccccn1 (stereo not drawn) [rosiglitazone]
- fold induction at 0.1 µM (PPARγ [5]): 6 ± 1.4

Compound: CC(C)(Sc1ccc(CCN(CCCCC2CCCCC2)C(=O)NC2CCCCC2)cc1)C(=O)O [GW7647, 2-(4-(2-(1-(cyclohexanebutyl)-3-cyclohexylureido)ethyl)phenylthio)-2-methylpropionic acid]
- AOX target gene expression (qPCR) in FAO-PPARα cells at 100 nM (PPARα [6]): 4.9 ± 0.5 fold increase
